For this assay, the target named is PI3K delta (Homo sapiens (Human), UniProt O00329). As to the kind of experiment: Luciferase-coupled chemiluminescence kinase assay (KinaseGlo, ATP consumption). In kind it is biochemical. As to the method: Kinase activity and compound inhibition were investigated using one or more of the assay formats described below. The ATP concentrations used in the various assays were approximately equal to or less than the KM for each of the respective kinases. Dose-response experiments were performed using an intra-plate dilution scheme with 10 different inhibitor concentrations in a 384-well microtiter plate. […] Typically N should approximate unity. Curve fitting was performed using XLFit or ActivityBase. Luciferase-Coupled Chemiluminescence Assay Protocol
Kinase activity is measured as the percent of ATP consumed following the kinase reaction using luciferase-luciferin-coupled chemiluminescence. […] Kinase reactions were initiated by combining test compounds, kinase, and ATP in a 20 μL volume (6 μL volume for 1536-well plate). The reaction mixture was incubated at ambient temperature for 2 h. Following the kinase reaction, a 20 μL (or 3 μL for 1536-well plate) aliquot of KinaseGlo (Promega) was added and the chemiluminescence signal measured using an EnVision plate reader (Perkin Elmer).
(In Kinase-Glo more light means more ATP remaining.)

Molecules are shown by their SMILES.

Sequence of PI3K delta (O00329 whole entry): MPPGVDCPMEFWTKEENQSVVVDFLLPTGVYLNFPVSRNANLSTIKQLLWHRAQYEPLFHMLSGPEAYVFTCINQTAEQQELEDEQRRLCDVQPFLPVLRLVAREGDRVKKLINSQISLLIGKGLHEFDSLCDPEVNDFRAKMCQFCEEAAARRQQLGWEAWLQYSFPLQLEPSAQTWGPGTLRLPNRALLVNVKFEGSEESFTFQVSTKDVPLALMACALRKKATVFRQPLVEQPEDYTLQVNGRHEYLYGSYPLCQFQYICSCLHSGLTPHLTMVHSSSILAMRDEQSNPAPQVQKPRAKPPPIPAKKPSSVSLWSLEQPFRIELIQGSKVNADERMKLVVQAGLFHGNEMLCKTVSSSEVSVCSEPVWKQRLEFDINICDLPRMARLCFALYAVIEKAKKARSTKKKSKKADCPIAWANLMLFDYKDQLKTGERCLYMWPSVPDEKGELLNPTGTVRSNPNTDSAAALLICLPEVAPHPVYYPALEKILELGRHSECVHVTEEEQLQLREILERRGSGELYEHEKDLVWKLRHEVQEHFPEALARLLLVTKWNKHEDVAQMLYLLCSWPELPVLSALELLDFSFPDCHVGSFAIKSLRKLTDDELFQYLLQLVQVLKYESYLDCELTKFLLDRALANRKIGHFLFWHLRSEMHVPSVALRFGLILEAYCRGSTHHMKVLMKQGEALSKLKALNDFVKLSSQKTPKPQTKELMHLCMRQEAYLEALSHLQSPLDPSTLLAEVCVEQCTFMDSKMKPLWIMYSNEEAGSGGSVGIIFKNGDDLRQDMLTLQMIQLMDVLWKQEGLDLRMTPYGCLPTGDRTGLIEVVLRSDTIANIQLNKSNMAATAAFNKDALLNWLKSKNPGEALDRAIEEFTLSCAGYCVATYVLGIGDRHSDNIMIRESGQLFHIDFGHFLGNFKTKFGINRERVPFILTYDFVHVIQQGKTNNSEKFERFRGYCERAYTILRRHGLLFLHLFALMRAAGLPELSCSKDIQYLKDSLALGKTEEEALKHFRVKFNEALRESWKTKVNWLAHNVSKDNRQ
Sequence of PI3K delta (P27986 whole entry partner): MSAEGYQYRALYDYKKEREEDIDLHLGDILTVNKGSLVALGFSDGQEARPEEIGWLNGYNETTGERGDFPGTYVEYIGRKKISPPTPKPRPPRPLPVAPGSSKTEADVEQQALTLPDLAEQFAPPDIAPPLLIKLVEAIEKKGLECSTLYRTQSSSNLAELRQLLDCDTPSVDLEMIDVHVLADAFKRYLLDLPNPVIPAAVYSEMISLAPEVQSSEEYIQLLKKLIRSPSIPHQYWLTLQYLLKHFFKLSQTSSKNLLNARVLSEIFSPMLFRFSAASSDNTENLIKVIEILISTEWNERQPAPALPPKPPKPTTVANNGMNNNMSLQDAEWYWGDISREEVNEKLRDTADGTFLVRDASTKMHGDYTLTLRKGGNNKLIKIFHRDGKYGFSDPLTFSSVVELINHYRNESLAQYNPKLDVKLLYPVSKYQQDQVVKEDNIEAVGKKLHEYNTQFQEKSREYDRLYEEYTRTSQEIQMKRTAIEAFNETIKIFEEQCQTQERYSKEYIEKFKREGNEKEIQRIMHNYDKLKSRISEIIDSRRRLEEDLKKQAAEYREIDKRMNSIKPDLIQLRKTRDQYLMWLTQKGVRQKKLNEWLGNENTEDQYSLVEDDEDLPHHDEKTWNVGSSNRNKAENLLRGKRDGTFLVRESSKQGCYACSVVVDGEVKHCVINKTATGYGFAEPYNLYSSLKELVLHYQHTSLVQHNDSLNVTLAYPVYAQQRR

`Cc1cccc2cc(CNC(=O)c3nccnc3N)c(N(C)CCN(C)C(=O)CN)nc12` [Compound 115, 3-amino-N-({2-[{2-[glycyl(methyl)amino]ethyl}(methyl)amino]-8-methylquinolin-3-yl}methyl)pyrazine-2-carboxamide] had an IC50 of 0.05 to 0.25 µM.

In the case of `COc1ccc(OCc2cc3cccc(C)c3nc2-c2ccccc2Cl)cc1` [Compound 16, 2-(2-chlorophenyl)-8-methyl-3-({[4-(methyloxy)phenyl]oxy}methyl)quinoline], the half-inhibitory concentration (IC50) is 0.5 to 1.5 µM.

In turn, `Cc1cccc2cc(CNC(=O)c3nccnc3N)c(NCCc3ccccn3)nc12` [Compound 96, 3-amino-N-({8-methyl-2-[(2-pyridin-2-ylethyl)amino]quinolin-3-yl}methyl)pyrazine-2-carboxamide] had an IC50 of 0.5 to 1.5 µM.

In the case of `Cc1cccc2cc(CNC(=O)c3nccnc3N)c(NCCCN(C)C)nc12` [Compound 138, 3-amino-N-[(2-{[3-(dimethylamino)propyl]amino}-8-methylquinolin-3-yl)methyl]pyrazine-2-carboxamide], the IC50 lay within 0.5 to 1.5 µM.

Consider `Cc1cccc2cc(Cn3cnc4c(N)ncnc43)c(NS(C)(=O)=O)nc12` [Compound 153, N-{3-[(6-amino-9H-purin-9-yl)methyl]-8-methylquinolin-2-yl}methanesulfonamide], for which the IC50 was in the range of 0.5 to 1.5 µM.

On to `CNCCOc1nc2c(C)cccc2cc1CNC(=O)c1nccnc1N` [Compound 122, 3-amino-N-[(8-methyl-2-{[2-(methylamino)ethyl]oxy}quinolin-3-yl)methyl]pyrazine-2-carboxamide], for which the IC50 was in the range of 0.5 to 1.5 µM.

The compound `Cc1cccc2cc(CNc3ncnc4[nH]cnc34)c(N3CCc4ccccc4C3)nc12` [Compound 19, N-{[2-(3,4-dihydroisoquinolin-2(1H)-yl)-8-methylquinolin-3-yl]methyl}-9H-purin-6-amine] registered an IC50 of 0.5 to 1.5 µM.

In turn, `Cc1cccc2cc(Cn3cnc4c(N)ncnc43)c(-c3ccccc3C(F)(F)F)nc12` [Compound 182, 9-({8-methyl-2-[2-(trifluoromethyl)phenyl]quinolin-3-yl}methyl)-9H-purin-6-amine] displayed an IC50 of 0.05 to 0.25 µM.

Consider `Cc1cccc2cc(CNc3ncnc4[nH]cnc34)c(-c3ccccc3Cl)nc12` [Compound 154, N-{[2-(2-chlorophenyl)-8-methylquinolin-3-yl]methyl}-9H-purin-6-amine], for which the IC50 was < 0.05 µM.

Take `Cc1ccccc1-n1c(CNC(=O)c2nccnc2N2CCOCC2)nc2cccc(C)c2c1=O` [Compound 151]: the IC50 lay in the range of 0.5 to 1.5 µM.

For the compound `Cc1cccc2cc(CNC(=O)c3nccnc3N)c(NCCO)nc12` [Compound 125, 3-amino-N-({2-[(2-hydroxyethyl)amino]-8-methylquinoin-3-yl}methyl)pyrazine-2-carboxamide], the IC50 is 0.5 to 1.5 µM.

As for `Cc1cccc2cc(COc3ccc4c(c3)OCO4)c(-c3ccccc3Cl)nc12` [Compound 8, 3-[(1,3-benzodioxol-5-yloxy)methyl]-2-(2-chlorophenyl)-8-methylquinoline], the half-inhibitory concentration (IC50) lay in the range of 0.5 to 1.5 µM.

`Cc1cccc2cc(CNC(=O)c3nccnc3N)c(N(C)CCO)nc12` [Compound 121, 3-amino-N-({2-[(2-hydroxyethyl)(methyl)amino]-8-methylquinolin-3-yl}methyl)pyrazine-2-carboxamide] displayed an IC50 of 0.05 to 0.25 µM.

On to `Cc1cccc2cc(CNC(=O)c3nccnc3N)c(N(C)CC3CCN(C)CC3)nc12` [Compound 31, 3-amino-N-[(8-methyl-2-{methyl[(1-methylpiperidin-4-yl)methyl]amino}quinolin-3-yl)methyl]pyrazine-2-carboxamide], for which the half-inhibitory concentration (IC50) was < 0.05 µM.

Take `Cc1cccc2cc(CNC(=O)c3nccnc3N)c(N(C)Cc3cccnc3)nc12` [Compound 87, 3-amino-N-({8-methyl-2-[methyl(pyridin-3-ylmethyl)amino]quinolin-3-yl}methyl)pyrazine-2-carboxamide]: the 50% inhibitory concentration (IC50) lay within 0.05 to 0.25 µM.

On to `Cc1cccc2cc(CNC(=O)c3nccnc3N)c(N3CCCN(Cc4ccncc4)CC3)nc12` [Compound 65, 3-amino-N-({8-methyl-2-[4-(pyridin-4-ylmethyl)-1,4-diazepan-1-yl]quinolin-3-yl}methyl)pyrazine-2-carboxamide], for which the concentration for half-maximal inhibition (IC50) is 0.5 to 1.5 µM.

Consider `Cc1cccc2cc(CNC(=O)c3nccnc3N)c(N(C)CC3CCCN(C)C3)nc12` (stereo not drawn) [Compound 30, 3-amino-N-[(8-methyl-2-{methyl[(1-methylpiperidin-3-yl)methyl]amino}quinolin-3-yl)methyl]pyrazine-2-carboxamide], for which the IC50 is < 0.05 µM.

`Cc1cccc2cc(Cn3cnc4c(N)ncnc43)c(N(C)CC3CCCN3C)nc12` (stereo not drawn) [Compound 2, 3-[(6-amino-9H-purin-9-yl)methyl]-N,8-dimethyl-N-[(1-methylpyrrolidin-2-yl)methyl]quinolin-2-amine]: the concentration for half-maximal inhibition (IC50) is < 0.05 µM.

On to `Cc1ccccc1-c1nc2c(C)cccc2cc1CSc1ncnc2[nH]cnc12` [Compound 188, 8-methyl-2-(2-methylphenyl)-3-[(9H-purin-6-ylthio)methyl]quinoline], for which the IC50 lay in the range of 0.05 to 0.25 µM.

For the compound `Nc1nccnc1C(=O)NCc1nc2ccccc2cc1-c1ccccc1CN1CCOCC1` [Compound 70, 3-amino-N-({3-[2-(morpholin-4-ylmethyl)phenyl]quinolin-2-yl}methyl)pyrazine-2-carboxamide], the IC50 lay within 0.25 to 0.5 µM.

In the case of `Cc1ccccc1-c1cc2ccccc2nc1Cn1nc(I)c2c(N)ncnc21` [Compound 145, 3-iodo-1-{[3-(2-methylphenyl)quinolin-2-yl]methyl}-1H-pyrazolo[3,4-d]pyrimidin-4-amine], the IC50 is < 0.05 µM.

With `Cc1cccc2cc(CNC(=O)c3nccnc3N)c(N(C)CCN(C)C(=O)[C@H]3CCCN3C(C)C)nc12` [Compound 73, 3-amino-N-({8-methyl-2-[methyl(2-{methyl[1-(1-methylethyl)-D-prolyl]amino}ethyl)amino]quinolin-3-yl}methyl)pyrazine-2-carboxamide], the IC50 was < 0.05 µM.

Turning to `Cc1cccc2cc(CNC(=O)c3nccnc3N)c(N(C)CCN(C)Cc3cccnc3)nc12` [Compound 83, 3-amino-N-{[8-methyl-2-(methyl{2-[methyl(pyridin-3-ylmethyl)amino]ethyl}amino)quinolin-3-yl]methyl}pyrazine-2-carboxamide], the IC50 was < 0.05 µM.

`COc1ccccc1NCc1cc2cccc(C)c2nc1-c1ccccc1Cl` [Compound 11, N-{[2-(2-chlorophenyl)-8-methylquinolin-3-yl]methyl}-2-(methyloxy)aniline] had an IC50 of 0.5 to 1.5 µM.

As for `CN(C)C(=O)c1ccccc1-c1cc2ccccc2nc1CNC(=O)c1nccnc1N` [Compound 56, 3-amino-N-[(3-{2-[(dimethylamino)carbonyl]phenyl}quinolin-2-yl)methyl]pyrazine-2-carboxamide], the IC50 fell in the range of 0.25 to 0.5 µM.

In turn, `Cc1ccccc1-n1c(Cn2cnc3c(N)ncnc32)nc2ccsc2c1=O` [Compound 162, 2-[(6-amino-9H-purin-9-yl)methyl]-3-(2-methylphenyl)thieno[3,2-d]pyrimidin-4(3H)-one] yielded an IC50 of 0.5 to 1.5 µM.

As for `Cc1ccccc1-n1c(CCN)nc2cccc(C)c2c1=O` [Compound 157, 2-(2-aminoethyl)-5-methyl-3-(2-methylphenyl)quinazolin-4(3H)-one], the IC50 was 0.5 to 1.5 µM.

As for `Cc1ccccc1-c1cc2ccccc2nc1CNC(=O)c1nccnc1N` [Compound 142, 3-amino-N-{[3-(2-methylphenyl)quinolin-2-yl]methyl}pyrazine-2-carboxamide], the IC50 is 0.5 to 1.5 µM.

Compound `Cc1cccc2cc(Cn3cnc4c(N)ncnc43)c(NS(=O)(=O)c3ccccc3)nc12` [Compound 156, N-{3-[(6-amino-9H-purin-9-yl)methyl]-8-methylquinolin-2-yl}benzenesulfonamide] had an IC50 of 0.5 to 1.5 µM.

For the compound `Cc1cccc2cc(CNc3ncnc4[nH]cnc34)c(N3CCCN(C)CC3)nc12` [Compound 146, N-{[8-methyl-2-(4-methyl-1,4-diazepan-1-yl)quinolin-3-yl]methyl}-9H-purin-6-amine], the IC50 was < 0.05 µM.

For the compound `Cc1cccc2cc(CNC(=O)c3nccnc3N)c(N(C)CCN(C)C(=O)[C@H]3CCCN3)nc12` [Compound 102, 3-amino-N-{[8-methyl-2-(methyl{2-[methyl(D-prolyl)amino]ethyl}amino)quinolin-3-yl]methyl}pyrazine-2-carboxamide], the IC50 lay in the range of 0.05 to 0.25 µM.

`Cc1ccccc1-c1nc2ccccc2cc1Cn1cnc2c(N)ncnc21` [Compound 191, 9-{[2-(2-methylphenyl)quinolin-3-yl]methyl}-9H-purin-6-amine] showed an IC50 of 0.5 to 1.5 µM.

In turn, `Cc1cccc2cc(CNC(=O)c3nccnc3N)c(N3CCCNCC3)nc12` [Compound 139, 3-amino-N-{[2-(1,4-diazepan-1-yl)-8-methylquinolin-3-yl]methyl}pyrazine-2-carboxamide] showed an IC50 of 0.25 to 0.5 µM.

As for `Cc1cccc2cc(CNC(=O)c3nccnc3N)c(N(C)CCc3ccccn3)nc12` [Compound 88, 3-amino-N-({8-methyl-2-[methyl(2-pyridin-2-ylethyl)amino]quinolin-3-yl}methyl)pyrazine-2-carboxamide], the IC50 fell in the range of 0.5 to 1.5 µM.

In the case of `Nc1nccnc1C(=O)NCc1nc2ccccc2cc1-c1cscn1` [Compound 91, 3-amino-N-{[3-(1,3-thiazol-4-yl)quinolin-2-yl]methyl}pyrazine-2-carboxamide], the IC50 lay within 0.5 to 1.5 µM.

`CNC(=O)CN(C)CCN(C)c1nc2c(C)cccc2cc1CNC(=O)c1nccnc1N` [Compound 76, 3-amino-N-({8-methyl-2-[methyl(2-{methyl[2-(methylamino)-2-oxoethyl]amino}ethyl)amino]quinolin-3-yl}methyl)pyrazine-2-carboxamide] registered an IC50 of 0.05 to 0.25 µM.

A word on the IC50: it is the midpoint of a concentration-inhibition curve. Read a low IC50 as higher potency.

The values are drawn from patent US9670212B2, “Inhibitors of PI3K-delta and methods of their use and manufacture” (Exelixis, Inc., priority 2010, dated 2017).
